According to ChEMBL document CHEMBL4342421, “Current scenario of tetrazole hybrids for antibacterial activity” (Eur J Med Chem, 2019):
In brackets after ≈: the same amount, converted by molar mass.

Columns and labels:
Candida albicans [1] = assay: Antifungal activity against Candida albicans assessed as zone of inhibition at 50 ug/ml; format: functional; conditions: read-out: IZ
Bacillus subtilis [2] = assay: Antimicrobial activity against Bacillus subtilis assessed as zone of inhibition at 50 ug/ml; format: functional; conditions: read-out: IZ
Aspergillus fumigatus = assay: Antifungal activity against Aspergillus fumigatus assessed as zone of inhibition at 50 ug/ml; format: functional; conditions: read-out: IZ
Staphylococcus aureus [3] = assay: Antimicrobial activity against Staphylococcus aureus assessed as zone of inhibition at 50 ug/ml; format: functional; conditions: read-out: IZ
Escherichia coli [4] = assay: Antimicrobial activity against Escherichia coli assessed as zone of inhibition at 50 ug/ml; format: functional; conditions: read-out: IZ
Pseudomonas aeruginosa [5] = assay: Antimicrobial activity against Pseudomonas aeruginosa assessed as zone of inhibition at 50 ug/ml; format: functional; conditions: read-out: IZ
Pseudomonas aeruginosa [6] = assay: Antimicrobial activity against Pseudomonas aeruginosa assessed as zone of inhibition at 250 ug/ml; format: functional; conditions: read-out: IZ
Pseudomonas aeruginosa [7] = assay: Antimicrobial activity against Pseudomonas aeruginosa; format: functional
Candida albicans [8] = assay: Antifungal activity against Candida albicans assessed as zone of inhibition at 250 ug/ml; format: functional; conditions: read-out: IZ
Candida albicans [9] = assay: Antifungal activity against Candida albicans; format: functional
Staphylococcus aureus [10] = assay: Antimicrobial activity against Staphylococcus aureus; format: functional
Aspergillus niger [11] = assay: Antifungal activity against Aspergillus niger; format: functional
Escherichia coli [12] = assay: Antimicrobial activity against Escherichia coli; format: functional
Aspergillus niger [13] = assay: Antifungal activity against Aspergillus niger assessed as zone of inhibition at 250 ug/ml; format: functional; conditions: read-out: IZ
Staphylococcus aureus [14] = assay: Antimicrobial activity against Staphylococcus aureus assessed as zone of inhibition at 250 ug/ml; format: functional; conditions: read-out: IZ
Escherichia coli [15] = assay: Antimicrobial activity against Escherichia coli assessed as zone of inhibition at 250 ug/ml; format: functional; conditions: read-out: IZ
Bacillus cereus [16] = assay: Antimicrobial activity against Bacillus cereus; format: functional
Bacillus cereus [17] = assay: Antimicrobial activity against Bacillus cereus assessed as zone of inhibition at 250 ug/ml; format: functional; conditions: read-out: IZ
Bacillus subtilis [18] = assay: Antimicrobial activity against Bacillus subtilis; format: functional
Salmonella typhimurium = assay: Antimicrobial activity against Salmonella typhimurium; format: functional, Salmonella enterica subsp. enterica serovar Typhimurium; conditions: Salmonella enterica

MIC (Pseudomonas aeruginosa [7]) | MIC (Candida albicans [9]) | MIC (Staphylococcus aureus [10]) | MIC (Aspergillus niger [11]) | MIC (Escherichia coli [12]) | MIC (Bacillus cereus [16]) | MIC (Bacillus subtilis [18]) | MIC (Salmonella typhimurium) | SMILES | zone of inhibition at 50 µg/mL (Candida albicans [1]) | zone of inhibition at 50 µg/mL (Bacillus subtilis [2]) | zone of inhibition at 50 µg/mL (Aspergillus fumigatus) | zone of inhibition at 50 µg/mL (Staphylococcus aureus [3]) | zone of inhibition at 50 µg/mL (Escherichia coli [4]) | zone of inhibition at 50 µg/mL (Pseudomonas aeruginosa [5]) | zone of inhibition at 250 µg/mL (Pseudomonas aeruginosa [6]) | zone of inhibition at 250 µg/mL (Candida albicans [8]) | zone of inhibition at 250 µg/mL (Aspergillus niger [13]) | zone of inhibition at 250 µg/mL (Staphylococcus aureus [14]) | zone of inhibition at 250 µg/mL (Escherichia coli [15]) | zone of inhibition at 250 µg/mL (Bacillus cereus [17])
 |  |  |  |  |  |  |  | Clc1cccc(-c2nnnn2-c2ccccn2)c1Cl | 10 to 24 mm | 10 to 24 mm | 10 to 24 mm | 10 to 24 mm | 10 to 24 mm | 10 to 24 mm |  |  |  |  |  | 
 |  |  |  |  |  |  |  | Clc1ccc(-n2nnnc2-c2cccnc2)cc1 | 10 to 22 mm | 10 to 22 mm | 10 to 22 mm | 10 to 22 mm | 10 to 22 mm | 10 to 22 mm |  |  |  |  |  | 
 |  |  |  |  |  |  |  | c1ccc(-n2nnnc2-c2cccnc2)cc1 | 10 to 22 mm | 10 to 22 mm | 10 to 22 mm | 10 to 22 mm | 10 to 22 mm | 10 to 22 mm |  |  |  |  |  | 
50 to 100 µg/mL (≈ 161 to 321 µM) | 50 to 100 µg/mL (≈ 161 to 321 µM) | 50 to 100 µg/mL (≈ 161 to 321 µM) | 50 to 100 µg/mL (≈ 161 to 321 µM) | 50 to 100 µg/mL (≈ 161 to 321 µM) | 50 to 100 µg/mL (≈ 161 to 321 µM) |  |  | Oc1ccc(-c2nnnn2-c2nc3ccccc3s2)cc1O |  |  |  |  |  |  | 16 to 26 mm | 16 to 26 mm | 16 to 26 mm | 16 to 26 mm | 16 to 26 mm | 16 to 26 mm
 |  |  |  |  |  |  |  | Cc1ccc(-c2nnnn2-c2ccccn2)cc1 | 10 to 24 mm | 10 to 24 mm | 10 to 24 mm | 10 to 24 mm | 10 to 24 mm | 10 to 24 mm |  |  |  |  |  | 
 |  |  |  |  |  |  |  | Clc1ccc(-c2nnnn2-c2ccccn2)cc1 | 10 to 24 mm | 10 to 24 mm | 10 to 24 mm | 10 to 24 mm | 10 to 24 mm | 10 to 24 mm |  |  |  |  |  | 
50 to 100 µg/mL (≈ 170 to 341 µM) | 50 to 100 µg/mL (≈ 170 to 341 µM) | 50 to 100 µg/mL (≈ 170 to 341 µM) | 50 to 100 µg/mL (≈ 170 to 341 µM) | 50 to 100 µg/mL (≈ 170 to 341 µM) | 50 to 100 µg/mL (≈ 170 to 341 µM) |  |  | Cc1ccc(-c2nnnn2-c2nc3ccccc3s2)cc1 |  |  |  |  |  |  | 16 to 26 mm | 16 to 26 mm | 16 to 26 mm | 16 to 26 mm | 16 to 26 mm | 16 to 26 mm
 |  |  |  |  |  |  |  | Brc1cccc(-c2nnnn2-c2ccccn2)c1 | 10 to 24 mm | 10 to 24 mm | 10 to 24 mm | 10 to 24 mm | 10 to 24 mm | 10 to 24 mm |  |  |  |  |  | 
 |  |  |  |  |  |  |  | Clc1ccccc1-n1nnnc1-c1cccnc1 | 10 to 22 mm | 10 to 22 mm | 10 to 22 mm | 10 to 22 mm | 10 to 22 mm | 10 to 22 mm |  |  |  |  |  | 
50 to 100 µg/mL (≈ 169 to 339 µM) | 50 to 100 µg/mL (≈ 169 to 339 µM) | 50 to 100 µg/mL (≈ 169 to 339 µM) | 50 to 100 µg/mL (≈ 169 to 339 µM) | 50 to 100 µg/mL (≈ 169 to 339 µM) | 50 to 100 µg/mL (≈ 169 to 339 µM) |  |  | Oc1cccc(-c2nnnn2-c2nc3ccccc3s2)c1 |  |  |  |  |  |  | 16 to 26 mm | 16 to 26 mm | 16 to 26 mm | 16 to 26 mm | 16 to 26 mm | 16 to 26 mm
 | 124 µg/mL (≈ 215 µM) | 72 µg/mL (≈ 125 µM) |  | 26 µg/mL (≈ 45.2 µM) |  | 24 to 76 µg/mL (≈ 41.7 to 132 µM) | 34 µg/mL (≈ 59.1 µM) | CCCCCC(O)C(C(CCCCCCC(=O)OCCn1c([N+](=O)[O-])cnc1C)n1nnnc1C)n1nnnc1C (stereo unspecified) |  |  |  |  |  |  |  |  |  |  |  | 
50 to 100 µg/mL (≈ 135 to 271 µM) | 50 to 100 µg/mL (≈ 135 to 271 µM) | 50 to 100 µg/mL (≈ 135 to 271 µM) | 50 to 100 µg/mL (≈ 135 to 271 µM) | 50 to 100 µg/mL (≈ 135 to 271 µM) | 50 to 100 µg/mL (≈ 135 to 271 µM) |  |  | COc1cc(-c2nnnn2-c2nc3ccccc3s2)cc(OC)c1OC |  |  |  |  |  |  | 16 to 26 mm | 16 to 26 mm | 16 to 26 mm | 16 to 26 mm | 16 to 26 mm | 16 to 26 mm
 |  |  |  |  |  |  |  | Cc1ccc(-n2nnnc2-c2cccnc2)cc1 | 10 to 22 mm | 10 to 22 mm | 10 to 22 mm | 10 to 22 mm | 10 to 22 mm | 10 to 22 mm |  |  |  |  |  | 
 |  |  |  |  |  |  |  | COc1ccccc1-n1nnnc1-c1cccnc1 | 10 to 22 mm | 10 to 22 mm | 10 to 22 mm | 10 to 22 mm | 10 to 22 mm | 10 to 22 mm |  |  |  |  |  | 
 |  |  |  |  |  |  |  | COc1ccc(-n2nnnc2-c2cccnc2)cc1 | 10 to 22 mm | 10 to 22 mm | 10 to 22 mm | 10 to 22 mm | 10 to 22 mm | 10 to 22 mm |  |  |  |  |  | 
 |  |  |  |  |  |  |  | Clc1cccc(-n2nnnc2-c2cccnc2)c1Cl | 10 to 22 mm | 10 to 22 mm | 10 to 22 mm | 10 to 22 mm | 10 to 22 mm | 10 to 22 mm |  |  |  |  |  | 
 |  |  |  |  |  |  |  | c1ccc(-c2nnnn2-c2ccccn2)cc1 | 10 to 24 mm | 10 to 24 mm | 10 to 24 mm | 10 to 24 mm | 10 to 24 mm | 10 to 24 mm |  |  |  |  |  | 
50 to 100 µg/mL (≈ 169 to 339 µM) | 50 to 100 µg/mL (≈ 169 to 339 µM) | 50 to 100 µg/mL (≈ 169 to 339 µM) | 50 to 100 µg/mL (≈ 169 to 339 µM) | 50 to 100 µg/mL (≈ 169 to 339 µM) | 50 to 100 µg/mL (≈ 169 to 339 µM) |  |  | Oc1ccc(-c2nnnn2-c2nc3ccccc3s2)cc1 |  |  |  |  |  |  | 16 to 26 mm | 16 to 26 mm | 16 to 26 mm | 16 to 26 mm | 16 to 26 mm | 16 to 26 mm
 |  |  |  |  |  |  |  | O=[N+]([O-])c1cc(-c2nnnn2-c2ccccn2)cc([N+](=O)[O-])c1 | 10 to 24 mm | 10 to 24 mm | 10 to 24 mm | 10 to 24 mm | 10 to 24 mm | 10 to 24 mm |  |  |  |  |  | 
 |  |  |  |  |  |  |  | COc1ccc(-c2nnnn2-c2ccccn2)cc1 | 16 to 24 mm | 16 to 24 mm | 16 to 24 mm | 16 to 24 mm | 16 to 24 mm | 16 to 24 mm |  |  |  |  |  | 
 |  |  |  | 30 µg/mL (≈ 92.8 µM) |  | 30 µg/mL (≈ 92.8 µM) | 30 µg/mL (≈ 92.8 µM) | O=C(N[C@H](CO)[C@H](O)c1ccc([N+](=O)[O-])cc1)C(Cl)Cl [CHLORAMPHENICOL] |  |  |  |  |  |  |  |  |  |  |  | 
 |  |  |  |  |  |  |  | Clc1ccccc1-c1nnnn1-c1ccccn1 | 10 to 24 mm | 10 to 24 mm | 10 to 24 mm | 10 to 24 mm | 10 to 24 mm | 10 to 24 mm |  |  |  |  |  | 
 |  |  |  |  |  |  |  | O=[N+]([O-])c1ccc(-n2nnnc2-c2cccnc2)cc1 | 10 to 22 mm | 10 to 22 mm | 10 to 22 mm | 10 to 22 mm | 10 to 22 mm | 10 to 22 mm |  |  |  |  |  | 
 |  |  |  |  |  |  |  | Brc1ccc(-n2nnnc2-c2cccnc2)cc1 | 10 to 22 mm | 10 to 22 mm | 10 to 22 mm | 10 to 22 mm | 10 to 22 mm | 10 to 22 mm |  |  |  |  |  | 
 |  |  |  |  |  |  |  | O=[N+]([O-])c1ccccc1-n1nnnc1-c1cccnc1 | 10 to 22 mm | 10 to 22 mm | 10 to 22 mm | 10 to 22 mm | 10 to 22 mm | 10 to 22 mm |  |  |  |  |  | 
